Legend:
[1] = system: HCT-116; test: Cytotoxicity against human HCT116 cells by MTT assay; type: functional, cell-based
[2] = molecular target: T1, Histone deacetylase 8 (Homo sapiens, UniProt Q9BY41); test: Inhibition of human recombinant HDAC8
T1 sequence (Q9BY41 whole entry): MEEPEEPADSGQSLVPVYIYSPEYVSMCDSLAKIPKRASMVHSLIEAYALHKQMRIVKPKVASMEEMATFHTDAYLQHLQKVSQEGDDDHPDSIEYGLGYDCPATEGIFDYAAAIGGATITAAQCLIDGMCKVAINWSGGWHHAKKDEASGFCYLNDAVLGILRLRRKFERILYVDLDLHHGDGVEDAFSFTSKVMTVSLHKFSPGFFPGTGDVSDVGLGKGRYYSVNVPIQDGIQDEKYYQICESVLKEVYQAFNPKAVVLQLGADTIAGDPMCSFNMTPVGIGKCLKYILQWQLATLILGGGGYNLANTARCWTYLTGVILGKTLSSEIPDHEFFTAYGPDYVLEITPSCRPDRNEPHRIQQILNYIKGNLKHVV

[3] = Cytotoxicity against human mammary epithelial cells by MTT assay; type: cell-based; settings: Epithelial cell
[4] = molecular target: Histone deacetylase 2 (Homo sapiens, UniProt Q92769)
Description: Inhibition of human recombinant HDAC2

[5] = molecular target: Histone deacetylase 1 (Homo sapiens, UniProt Q13547)
Description: Inhibition of human recombinant HDAC1

[6] = molecular target: Histone deacetylase; test: Inhibition of HDAC in 293T cells; type: cell-based, Homo sapiens
[7] = molecular target: Histone deacetylase 3 (Homo sapiens, UniProt O15379); test: Inhibition of human recombinant HDAC3
Sequence of Histone deacetylase 3 (O15379 whole entry): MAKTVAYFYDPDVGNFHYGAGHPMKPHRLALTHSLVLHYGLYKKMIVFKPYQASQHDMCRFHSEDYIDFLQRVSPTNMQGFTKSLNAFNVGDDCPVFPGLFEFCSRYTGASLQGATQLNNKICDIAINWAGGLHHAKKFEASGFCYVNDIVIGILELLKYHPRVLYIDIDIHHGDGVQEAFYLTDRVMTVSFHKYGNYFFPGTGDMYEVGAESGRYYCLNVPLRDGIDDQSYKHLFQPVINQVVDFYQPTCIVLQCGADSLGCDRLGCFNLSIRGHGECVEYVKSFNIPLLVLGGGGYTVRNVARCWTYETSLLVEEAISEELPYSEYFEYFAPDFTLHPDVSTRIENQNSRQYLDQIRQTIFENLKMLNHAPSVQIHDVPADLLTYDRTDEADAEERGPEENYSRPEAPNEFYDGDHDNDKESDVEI

Sequence of Histone deacetylase 2 (Q92769 whole entry): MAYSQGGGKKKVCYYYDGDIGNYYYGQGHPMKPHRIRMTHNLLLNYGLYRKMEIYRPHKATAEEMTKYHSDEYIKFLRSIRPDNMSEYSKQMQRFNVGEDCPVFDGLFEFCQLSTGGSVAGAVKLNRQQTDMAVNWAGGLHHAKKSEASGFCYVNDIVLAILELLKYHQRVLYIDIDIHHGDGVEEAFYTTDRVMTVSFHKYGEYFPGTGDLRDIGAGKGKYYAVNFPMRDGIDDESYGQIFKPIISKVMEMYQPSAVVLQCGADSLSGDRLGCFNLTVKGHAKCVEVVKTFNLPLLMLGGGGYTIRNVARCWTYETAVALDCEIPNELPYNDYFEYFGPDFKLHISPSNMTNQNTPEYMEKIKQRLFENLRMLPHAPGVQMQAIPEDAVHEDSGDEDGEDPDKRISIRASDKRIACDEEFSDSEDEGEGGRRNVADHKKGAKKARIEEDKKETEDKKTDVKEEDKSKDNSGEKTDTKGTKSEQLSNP
Sequence of Histone deacetylase 1 (Q13547 whole entry): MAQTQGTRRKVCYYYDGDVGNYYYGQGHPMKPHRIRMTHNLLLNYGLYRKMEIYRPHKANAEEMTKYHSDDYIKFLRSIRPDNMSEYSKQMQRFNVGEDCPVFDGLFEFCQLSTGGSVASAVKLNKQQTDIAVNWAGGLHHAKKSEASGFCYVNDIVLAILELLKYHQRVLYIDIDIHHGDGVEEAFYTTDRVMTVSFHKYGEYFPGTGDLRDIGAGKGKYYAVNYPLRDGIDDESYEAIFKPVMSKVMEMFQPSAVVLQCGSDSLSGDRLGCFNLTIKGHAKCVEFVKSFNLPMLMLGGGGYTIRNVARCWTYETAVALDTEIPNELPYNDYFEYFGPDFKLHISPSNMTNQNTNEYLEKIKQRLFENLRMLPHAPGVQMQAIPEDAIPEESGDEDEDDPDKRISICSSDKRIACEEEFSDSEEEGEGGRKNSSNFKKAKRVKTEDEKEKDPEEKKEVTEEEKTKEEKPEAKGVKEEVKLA

Row | IC50 [2] [nM] | IC50 [4] [nM] | IC50 [5] [nM] | IC50 [6] [nM] | IC50 [7] [nM] | SMILES | IC50 [1] [nM] | IC50 [3] [nM]
1 | > 20000 | – | – | – | – | CC(=O)Nc1ccc(C(=O)Nc2cc(-c3cccs3)ccc2N)cc1 | 500 | > 50000
2 | > 20000 | 2000 | 2000 | 3000 | > 20000 | Nc1ccccc1NC(=O)c1ccc2nccnc2c1 | 11000 | > 50000
3 | > 20000 | 200 | 50 | 150 | > 20000 | COc1ccc(C(=O)Nc2cc(-c3cccs3)ccc2N)cc1 | 400 | > 50000
4 | > 20000 | 900 | 2000 | 3000 | 1400 | COc1ccc(C(=O)Nc2ccccc2N)cc1 | 10000 | > 50000
5 | – | > 10000 | > 10000 | – | – | COc1ccc(NCc2ccc(C(=O)Nc3cc(-c4cc5ccccc5s4)ccc3N)cc2)cc1OC | – | –
6 | – | 200 | – | – | – | COc1ccc(NCc2ccc(C(=O)Nc3ccccc3O)cc2)cc1OC | – | –
7 | – | 500 | 440 | – | – | COc1ccc(NCc2ccc(C(=O)Nc3ccccc3N)cc2)cc1OC | – | –
8 | – | – | – | – | – | CC(=O)Nc1ccc(C(=O)Nc2ccccc2N)cc1 [TACEDINALINE] | 4000 | > 50000
9 | – | – | – | – | – | O=C(/C=C/c1ccc(CN(CCO)CCc2c[nH]c3ccccc23)cc1)NO [DACINOSTAT] | < 50 | 1000
10 | – | > 10000 | > 10000 | – | – | COc1ccc(NCc2ccc(C(=O)Nc3ccc(-c4cccs4)cc3N)cc2)cc1OC | – | –
11 | – | 80 | 50 | – | – | COc1ccc(NCc2ccc(C(=O)Nc3cc(-c4cccs4)ccc3N)cc2)cc1OC | – | –

Row | SMILES | IC50 [2] [nM] | IC50 [4] [nM] | IC50 [5] [nM] | IC50 [6] [nM] | IC50 [7] [nM] | IC50 [1] [nM] | IC50 [3] [nM]
12 | COc1ccc(NCc2ccc(C(=O)Nc3cc(-c4ccccc4)ccc3N)cc2)cc1OC | – | 100 | – | – | – | – | –
13 | Nc1ccc(-c2cccs2)cc1NC(=O)c1ccc2nccnc2c1 | > 20000 | 200 | 60 | 900 | > 20000 | 900 | 26000
14 | COc1ccc(NCc2ccc(C(=O)Nc3cc(-c4ccoc4)ccc3N)cc2)cc1OC | – | 70 | 50 | – | – | – | –
15 | COc1ccc(NCc2ccc(C(=O)Nc3cc(-c4cccs4)ccc3O)cc2)cc1OC | – | 60 | 40 | – | – | – | –
16 | COc1ccc(NCc2ccc(C(=O)Nc3cc(-c4ccsc4)ccc3N)cc2)cc1OC | – | 60 | – | – | – | – | –
17 | Nc1ccc(-c2cccs2)cc1NC(=O)c1ccc(CNC(=O)OCc2cccnc2)cc1 | – | 100 | – | – | – | – | –
